Reference: patent US20250206718A1, “NITROGEN-CONTAINING HETEROCYCLIC DERIVATIVE INHIBITOR, PREPARATION METHOD THEREFOR AND USE THEREOF” (SHANGHAI HANSOH BIOMEDICAL CO., LTD., priority 2022, published 2025)

Columns and labels:
[1] = molecular target: Ba/F3 EGFR Del19/T790M/C797S cells (Homo sapiens, UniProt P00533, T790M/C797S, cells depend on it, form not given); assay: Cell proliferation inhibition (Cell Titer-Glo), Ba/F3 EGFR Del19/T790M/C797S; assay type: cell-based, mouse; conditions: 72 hours, CellTiter-Glo, read-out: Ba/F3 EGFR Del19_T790M_C797S IC50
From the text: (§1) Experimental objective: The objective of this test example is to test the inhibitory activity of compounds on the proliferation of different EGFR C797S drug-resistant mutant cell lines Ba/F3 EGFR Del19/T790M/C797S, Ba/F3 EGFR L858R/T790M/C797S, and Ba/F3 EGFR Del19/C797S.
(§2) • Ba/F3 EGFR Del19/T790M/C797S cells were purchased from KYinno Biotechnology Co., Ltd.; • Ba/F3 EGFR Del19/C797S cells were purchased from CoBioer Biosciences Co., Ltd.; • Ba/F3 EGFR L858R/T790M/C797S cells were purchased from CoBioer Biosciences Co., Ltd.; • Cell Titer-Glo was purchased from Promega, with a catalog number of G7573; • RPMI 1640 was purchased from Gibco, with a catalog number of 22400089; • FBS was purchased from Gibco, with a catalog number of 10091148; • cell culture plates were purchased from Corning, with a catalog number of 3610.
(§3) The inhibitory activity of the compound on the proliferation of different EGFR C797S drug-resistant mutant cell lines was detected using the Cell Titer-Glo method. The different cell lines were cultured in RPMI 1640 complete culture medium containing 10% FBS under conditions of 37° C. and 5% CO2, the cells were collected by centrifugation when growing to a certain density, and adjusted to appropriate cell density after counting, the cells were spread on a white 96-well plate at 90 μL/well, and cultured in a 37° C., 5% CO2 incubator overnight, prepared compound solutions of different concentrations were added at 10 μL/well, corresponding solvent controls were set, and all wells were cultured in a 37° C., 5% CO2 incubator for 72 hours, 50 μL of CellTiter-Glo solution was added to each well, shook and mixed evenly, and incubated in the dark for 10 minutes, and a BioTek Synergy H1 microplate reader was used for reading.
(§4) The luminescence signal value was used to calculate the inhibition rate. Graphpad Prism software was used to fit the concentration and inhibition rate to a nonlinear regression curve, so as to obtain the IC50 value, as shown in the Table below for details.

[2] = molecular target: Ba/F3 EGFR Del19/C797S cells (Homo sapiens, UniProt P00533, C797S, cells depend on it, form not given); assay: Cell proliferation inhibition (Cell Titer-Glo), Ba/F3 EGFR Del19/C797S; assay type: cell-based, mouse; conditions: 72 hours, CellTiter-Glo, read-out: Ba/F3 EGFR Del19/C797S IC50
From the text: as §1, §2, §3, §4

[3] = Rat pharmacokinetic evaluation test; assay type: in vivo; conditions: Sprague-Dawley (SD), po, SD rats, male, p.o. 5 mg/kg, plasma
Description: SD rats were used as test animals to study the pharmacokinetic behavior of the compounds of the present invention in the rat body (plasma) after oral administration at a dose of 5 mg/kg.
2.2 Experimental Animals: 3 SD Rats/Group, Male, from Shanghai Jiesijie Experimental Animal Co., Ltd., Animal Production License Number (SCXK (Shanghai) 2013-0006 No. 311620400001794).
• Oral administration drug preparation: 20% solutol HS15 in 0.5% MC (methylcellulose)
20 g of a Solutol HS15 solid and 0.5 g of a MC solid powder were weighed and dissolved in 80 mL of purified water, and the mixture was vortexed, mixed until uniform, and subjected to ultrasound treatment to obtain a clear solution of 20% solutol HS15 in 0.5% MC.
The example compound was weighed into a 20 mL glass bottle, the solution was added thereto and the mixture was subjected to ultrasound treatment for 10 minutes to obtain a clear solution with a concentration of 0.5 mg/mL.
3 male SD rats were administered p.o. respectively after the 3 male SD rats were fasted overnight; the p.o. dose was 5 mg/kg and the administration volume was 10 mL/kg.
Blood collection: Before and after administration to rats, 0.2 mL of blood was collected from the jugular vein at 0.25, 0.5, 1, 2, 4, 6, 8 and 24 h, and placed in an EDTA-K2 anticoagulation tube, which was centrifuged at 6000 rpm at 4° C. for 6 min to separate plasma which was stored at −80° C.; the rats were fed 4 h after administration.
1) 160 μL of acetonitrile was added to 40 μL of plasma sample for precipitation, mixed and centrifuged at 3500×g for 5 to 20 min.
2) the treated supernatant solution was taken and subjected to LC/MS/MS to analyze the concentrations of the test compounds. LC/MS/MS analysis instrument: AB Sciex API 4000 Qtrap.
• Liquid phase conditions: Shimadzu LC-20AD pump • Chromatographic column: Agilent ZORBAX XDB-C18 (50×2.1 mm, 3.5 μm) mobile phase: liquid A is 0.1% aqueous formic acid solution, liquid B is acetonitrile • Flow rate: 0.4 mL/min • Elution time: 0-4.0 min, the eluent is as follows:
The main pharmacokinetic parameters were calculated using WinNonlin 6.1.

[4] = molecular target: Ba/F3 EGFR L858R/T790M/C797S cells (Homo sapiens, UniProt P00533, T790M/C797S/L858R, cells depend on it); assay: Cell proliferation inhibition (Cell Titer-Glo), Ba/F3 EGFR L858R/T790M/C797S; assay type: cell-based, mouse; conditions: 72 hours, CellTiter-Glo, read-out: Ba/F3 EGFR L858R_T790M_C797S IC50
From the text: as §1, §2, §3, §4

Chain of Ba/F3 EGFR L858R/T790M/C797S cells (P00533 whole entry T790M/C797S/L858R): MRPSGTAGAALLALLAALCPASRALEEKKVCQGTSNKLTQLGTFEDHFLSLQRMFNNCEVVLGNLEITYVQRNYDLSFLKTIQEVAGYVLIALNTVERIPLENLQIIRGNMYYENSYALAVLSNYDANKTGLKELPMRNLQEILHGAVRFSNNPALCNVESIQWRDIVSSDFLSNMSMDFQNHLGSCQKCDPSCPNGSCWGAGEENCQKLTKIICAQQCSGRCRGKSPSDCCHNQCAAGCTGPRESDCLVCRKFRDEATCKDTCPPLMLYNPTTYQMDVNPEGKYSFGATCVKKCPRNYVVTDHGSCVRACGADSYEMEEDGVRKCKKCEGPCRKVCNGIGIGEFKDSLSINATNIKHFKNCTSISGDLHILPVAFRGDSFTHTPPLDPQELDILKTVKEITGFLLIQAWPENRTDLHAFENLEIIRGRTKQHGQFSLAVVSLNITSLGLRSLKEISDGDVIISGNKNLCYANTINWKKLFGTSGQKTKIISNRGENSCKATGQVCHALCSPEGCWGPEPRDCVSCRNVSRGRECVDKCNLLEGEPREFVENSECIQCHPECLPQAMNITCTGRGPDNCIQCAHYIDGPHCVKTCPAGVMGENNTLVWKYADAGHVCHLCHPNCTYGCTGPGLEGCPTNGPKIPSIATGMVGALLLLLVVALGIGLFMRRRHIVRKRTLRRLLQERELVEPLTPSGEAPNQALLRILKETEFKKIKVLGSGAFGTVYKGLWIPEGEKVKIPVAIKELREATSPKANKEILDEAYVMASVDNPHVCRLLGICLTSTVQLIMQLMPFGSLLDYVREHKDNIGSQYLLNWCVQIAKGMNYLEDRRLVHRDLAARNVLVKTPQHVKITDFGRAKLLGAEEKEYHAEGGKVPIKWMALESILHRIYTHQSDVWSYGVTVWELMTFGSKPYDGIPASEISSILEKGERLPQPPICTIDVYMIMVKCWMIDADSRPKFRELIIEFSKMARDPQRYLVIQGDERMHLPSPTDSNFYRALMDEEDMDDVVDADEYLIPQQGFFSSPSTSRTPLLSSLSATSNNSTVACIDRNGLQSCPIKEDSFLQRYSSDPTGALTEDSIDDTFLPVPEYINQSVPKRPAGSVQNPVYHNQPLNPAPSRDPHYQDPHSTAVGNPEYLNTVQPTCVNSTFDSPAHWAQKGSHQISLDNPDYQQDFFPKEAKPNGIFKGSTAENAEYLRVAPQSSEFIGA
Chain of Ba/F3 EGFR Del19/T790M/C797S cells (P00533 with tags, fused parts or gaps DEL746-750/T790M/C797S, form open): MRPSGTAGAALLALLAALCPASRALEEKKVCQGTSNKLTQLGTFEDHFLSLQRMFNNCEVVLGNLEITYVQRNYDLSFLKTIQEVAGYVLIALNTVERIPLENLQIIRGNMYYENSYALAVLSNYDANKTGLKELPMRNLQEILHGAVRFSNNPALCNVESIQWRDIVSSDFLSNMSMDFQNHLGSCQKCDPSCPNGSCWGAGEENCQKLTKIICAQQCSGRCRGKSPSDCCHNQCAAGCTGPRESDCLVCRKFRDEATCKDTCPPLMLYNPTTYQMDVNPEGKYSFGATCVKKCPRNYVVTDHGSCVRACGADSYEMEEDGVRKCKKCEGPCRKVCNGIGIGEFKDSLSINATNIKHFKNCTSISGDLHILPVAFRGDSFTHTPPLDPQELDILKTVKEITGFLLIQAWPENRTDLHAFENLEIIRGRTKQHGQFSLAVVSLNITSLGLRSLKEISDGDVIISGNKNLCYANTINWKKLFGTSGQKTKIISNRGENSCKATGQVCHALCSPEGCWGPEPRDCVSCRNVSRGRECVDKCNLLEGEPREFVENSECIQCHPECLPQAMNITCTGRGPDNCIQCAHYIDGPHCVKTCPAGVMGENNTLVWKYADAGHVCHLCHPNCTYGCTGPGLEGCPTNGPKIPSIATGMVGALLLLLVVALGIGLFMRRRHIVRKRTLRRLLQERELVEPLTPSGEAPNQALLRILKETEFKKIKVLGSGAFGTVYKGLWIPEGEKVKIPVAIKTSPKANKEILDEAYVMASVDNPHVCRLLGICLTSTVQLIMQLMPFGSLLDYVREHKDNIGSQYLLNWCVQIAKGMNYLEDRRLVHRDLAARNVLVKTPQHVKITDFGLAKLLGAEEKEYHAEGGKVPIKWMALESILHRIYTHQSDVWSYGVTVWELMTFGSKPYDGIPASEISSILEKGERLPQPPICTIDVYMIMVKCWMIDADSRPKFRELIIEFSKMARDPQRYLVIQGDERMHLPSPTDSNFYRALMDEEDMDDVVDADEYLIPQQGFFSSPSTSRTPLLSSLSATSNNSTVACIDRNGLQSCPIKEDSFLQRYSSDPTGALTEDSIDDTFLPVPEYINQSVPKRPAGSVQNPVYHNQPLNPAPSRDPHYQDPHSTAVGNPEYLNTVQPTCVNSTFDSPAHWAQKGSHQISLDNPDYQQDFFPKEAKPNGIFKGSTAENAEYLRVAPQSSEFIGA
Chain of Ba/F3 EGFR Del19/C797S cells (P00533 with tags, fused parts or gaps DEL746-750/C797S, form open): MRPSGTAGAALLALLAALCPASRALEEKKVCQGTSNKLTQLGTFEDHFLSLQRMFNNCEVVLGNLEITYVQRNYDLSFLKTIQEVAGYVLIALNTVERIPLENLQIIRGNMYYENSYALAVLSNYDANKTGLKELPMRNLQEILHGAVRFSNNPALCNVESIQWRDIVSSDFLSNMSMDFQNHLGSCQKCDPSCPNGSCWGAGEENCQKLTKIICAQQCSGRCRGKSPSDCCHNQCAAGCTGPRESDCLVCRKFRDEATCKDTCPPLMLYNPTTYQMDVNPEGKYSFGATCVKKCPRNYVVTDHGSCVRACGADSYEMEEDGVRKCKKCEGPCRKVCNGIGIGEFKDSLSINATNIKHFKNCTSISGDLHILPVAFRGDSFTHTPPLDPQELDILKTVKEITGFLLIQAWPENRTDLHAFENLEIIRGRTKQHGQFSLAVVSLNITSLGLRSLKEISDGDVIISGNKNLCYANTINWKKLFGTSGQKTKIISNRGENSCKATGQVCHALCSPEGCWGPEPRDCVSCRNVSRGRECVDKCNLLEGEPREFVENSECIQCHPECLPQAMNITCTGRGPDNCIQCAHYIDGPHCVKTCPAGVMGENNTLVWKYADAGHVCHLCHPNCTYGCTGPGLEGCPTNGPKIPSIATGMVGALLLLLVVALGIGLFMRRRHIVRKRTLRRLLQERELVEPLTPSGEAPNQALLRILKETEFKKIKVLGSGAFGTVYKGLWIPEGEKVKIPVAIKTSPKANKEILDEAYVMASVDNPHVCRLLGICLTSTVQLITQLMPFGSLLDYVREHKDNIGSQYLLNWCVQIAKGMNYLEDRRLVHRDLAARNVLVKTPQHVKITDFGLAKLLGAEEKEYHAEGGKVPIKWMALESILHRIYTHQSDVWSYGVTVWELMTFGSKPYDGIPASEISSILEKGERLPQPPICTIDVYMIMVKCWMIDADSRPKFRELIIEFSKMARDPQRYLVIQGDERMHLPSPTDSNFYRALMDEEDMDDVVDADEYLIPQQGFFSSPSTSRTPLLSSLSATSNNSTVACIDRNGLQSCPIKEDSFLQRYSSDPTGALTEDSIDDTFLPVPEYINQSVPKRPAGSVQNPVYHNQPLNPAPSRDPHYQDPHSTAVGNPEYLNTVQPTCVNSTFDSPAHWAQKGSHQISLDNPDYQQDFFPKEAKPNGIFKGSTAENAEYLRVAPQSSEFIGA

SMILES | GI50 [1] [nM] | GI50 [2] [nM] | AUC(0-t) [3] [ng·h/mL] | Cmax [3] [ng/mL] | half-life [3] [h] | GI50 [4] [nM]
Cc1nn(C)cc1-c1nccc(Nc2cc3c(C(C)C)ccc(N4C[C@H](CS(C)(=O)=O)[C@H]4C)c3cn2)n1 [Example 1, N-(2-(1,3-dimethyl-1H-pyrazolyl-4-yl)pyrimidin-4-yl)-5-isopropyl-8-((2R,3S)-2-methyl-3-((methanesulfonyl)methyl)azabut-1-yl)isoquinolin-3-amine] | 4.5 | 12 | 1410 | 287 | 2.7 | –
CC(C)c1ccc(N2C[C@H](CS(C)(=O)=O)[C@H]2C)c2cnc(Nc3ccnc(-c4cn(C)nc4Cl)n3)cc12 [Example 5, N-(2-(3-chloro-1-methyl-1H-pyrazol-4-yl)pyrimidin-4-yl)-5-isopropyl-8-((2R,3S)-2-methyl-3-((methanesulfonyl)methyl)azabut-1-yl)isoquinolin-3-amine] | 3.7 | 5.1 | 1260 | 239 | 4.1 | 11
[2H]C([2H])([2H])n1cc(-c2nccc(Nc3cc4c(C(C)C)ccc(N5C[C@H](CS(C)(=O)=O)[C@H]5C)c4cn3)n2)c(Cl)n1 [Example 6, N-(2-(3-chloro-1-(methyl-d3)-1H-pyrazol-4-yl)pyrimidin-4-yl)-5-isopropyl-8-((2R,3S)-2-methyl-3-((methylsulfonyl)methyl)azetidin-1-yl)isoquinolin-3-amine] | 5.1 | 5.1 | – | – | – | 13
CC(C)c1ccc(N2CC(NS(C)(=O)=O)C2)c2cnc(Nc3ccnc(-c4cn(C)nc4Cl)n3)cc12 [Example 44, N-(1-(3-((2-(3-chloro-1-methyl-1H-pyrazol-4-yl)pyrimidin-4-yl)amino)-5-isopropylisoquinolin-8-yl)azetidin-3-yl)methanesulfonamide] | 10 | 8.4 | – | – | – | –
CC(C)c1ccc(N2CC(N(C)S(C)(=O)=O)C2)c2cnc(Nc3ccnc(-c4cn(C)nc4Cl)n3)cc12 [Example 67, N-(1-(3-((2-(3-chloro-1-methyl-1H-pyrazol-4-yl)pyrimidin-4-yl)amino)-5-isopropylisoquinolin-8-yl)azetidin-3-yl)-N-methyl methanesulfonamide] | 4 | 3.2 | 2170 | 186 | 2.7 | –
COC(C)Cn1cc(-c2nccc(Nc3cc4c(C(C)C)ccc(N5C[C@H](CS(C)(=O)=O)[C@H]5C)c4cn3)n2)c(Cl)n1 (stereo partly drawn) [Example 116A, N-(2-(3-chloro-1-(2-methoxypropyl)-1H-pyrazol-4-yl)pyrimidin-4-yl)-5-isopropyl-8-((2R,3S)-2-methyl-3-((methanesulfonyl)methyl)azetidin-1-yl)isoquinolin-3-amine] | 7.6 | 33 | – | – | – | –
CC(C)c1c(F)cc(N2C[C@H](CS(C)(=O)=O)[C@H]2C)c2cnc(Nc3ccnc(-c4cn(C)nc4Cl)n3)cc12 [Example 120, N-(2-(3-chloro-1-methyl-1H-pyrazol-4-yl)pyrimidin-4-yl)-6-fluoro-5-isopropyl-8-((2R,3S)-2-methyl-3-((methanesulfonyl)methyl)azetidin-1-yl)isoquinolin-3-amine] | 7.1 | 11 | – | – | – | 14
CC(C)c1c(F)cc(N2C[C@H](N(C)S(C)(=O)=O)[C@H]2C)c2cnc(Nc3ccnc(-c4cn(C)nc4Cl)n3)cc12 [Example 121, N-((2R,3S)-1-(3-((2-(3-chloro-1-methyl-1H-pyrazol-4-yl)pyrimidin-4-yl)amino)-6-fluoro-5-isopropylisoquinolin-8-yl)-2-methylazetidin-3-yl)-N-methyl methanesulfonamide] | 4.5 | 6.2 | – | – | – | 15
CC(C)c1ccc(N2C[C@H](NS(C)(=O)=O)[C@H]2C)c2cnc(Nc3ccnc(-c4cn(C)nc4Cl)n3)cc12 [Example 123, N-((2R,3S)-1-(3-((2-(3-chloro-1-methyl-1H-pyrazol-4-yl)pyrimidin-4-yl)amino)-5-isopropylisoquinolin-8-yl)-2-methylazetidin-3-yl)methanesulfonamide] | 3.3 | 6.5 | – | – | – | 13
Cc1nn(C)cc1-c1nccc(Nc2cc3c(C(C)C)c(F)cc(N4C[C@H](CS(C)(=O)=O)[C@H]4C)c3cn2)n1 [Example 125, N-(2-(1,3-dimethyl-1H-pyrazol-4-yl)pyrimidin-4-yl)-6-fluoro-5-isopropyl-8-((2R,3S)-2-methyl-3-((methanesulfonyl)methyl)azetidin-1-yl)isoquinolin-3-amine] | 6.8 | 18 | – | – | – | –
Cc1nn(C)cc1-c1nccc(Nc2cc3c(C(C)C)c(F)cc(N4C[C@H](N(C)S(C)(=O)=O)[C@H]4C)c3cn2)n1 [Example 127, N-((2R,3S)-1-(3-((2-(1,3-dimethyl-1H-pyrazol-4-yl)pyrimidin-4-yl)amino)-6-fluoro-5-isopropylisoquinolin-8-yl)-2-methylazetidin-3-yl)-N-methyl methanesulfonamide] | 4.5 | 7.8 | – | – | – | –
CC(C)c1cnc(N2CC(N(C)S(C)(=O)=O)C2)c2cnc(Nc3ccnc(-c4cn(C)nc4Cl)n3)cc12 [Example 130, N-(1-(6-((2-(3-chloro-1-methyl-1H-pyrazol-4-yl)pyrimidin-4-yl)amino)-4-isopropyl-2,7-diazanaphthalen-1-yl)azetidin-3-yl)-N-methyl methanesulfonamide] | 8.1 | 5.9 | – | – | – | –
CC(C)c1ccc(N2C[C@H](CS(C)(=O)=O)[C@H]2C)c2cnc(Nc3ccnc(-c4cn(CC(O)CF)nc4Cl)n3)cc12 (stereo partly drawn) [Example 172, 1-(3-chloro-4-(4-((5-isopropyl-8-((2R,3S)-2-methyl-3-((methanesulfonyl)methyl)azetidin-1-yl)isoquinolin-3-yl)amino)pyrimidin-2-yl)-1H-pyrazol-1-yl)-3-fluoropropan-2-ol] | 5 | 33 | – | – | – | –
CC(C)c1ccc(N2C[C@H](CS(C)(=O)=O)[C@H]2C)c2cnc(Nc3ccnc(-c4cn(C[C@@H]5CCO5)nc4Cl)n3)cc12 [Example 182, N-(2-(3-chloro-1-(((S)-oxetan-2-yl)methyl)-1H-pyrazol-4-yl)pyrimidin-4-yl)-5-isopropyl-8-((2R,3S)-2-methyl-3-((methanesulfonyl)methyl)azetidin-1-yl)isoquinolin-3-amine] | 4.4 | – | – | – | – | 10
CC(C)c1c(F)cc(N2C[C@H](NS(C)(=O)=O)[C@H]2C)c2cnc(Nc3ccnc(-c4cn(C)nc4Cl)n3)cc12 [Example 186, N-((2R,3S)-1-(3-((2-(3-chloro-1-methyl-1H-pyrazol-4-yl)pyrimidin-4-yl)amino)-6-fluoro-5-isopropylisoquinolin-8-yl)-2-methylazetidin-3-yl)methanesulfonamide] | 5.9 | 2.6 | – | – | – | 8.8
